Experimental data as given in patent US20090118332A1, “Therapeutic Agents - 551” (AstraZeneca AB, priority 2006, published 2009).

Target: T1, human Fatty Acid Synthase (Homo sapiens, UniProt P49327)
T1 construct: made in house
Assay: Human FAS enzyme assay (decrease in NADPH fluorescence)
Type: biochemical
Conditions: for inhibition at 100 µM: % inhibition at a concentration of 100 μmolar; for IC50, inhibition of human Fatty Acid Synthase: FAS enzyme assay, IC50 from fitted sigmoid curves
Protocol: Human and Rat FAS Enzyme Assay.
Fatty acid synthase is an enzyme complex that harbours seven enzymatic activities catalysing the reductive synthesis of long chain fatty acids from acetyl CoA and malonyl CoA to palmitate. When acetyl CoA and malonyl CoA are forming palmitate NADPH is consumed forming NADP. Since NADPH is fluorescent but not NADP the reaction can be measured by analysing the decrease in fluorescence.
Compounds were added to a black 384 well plate (Matrix) in a volume of 5 μl consisting of 20% DMSO and 80% Tris buffer pH 7.5, at a top concentration of 1 mM. NADPH, 30 μl of 166.6 μM, formulated in assay buffer (0.1M Tris ph7.5, 0.1 mM EDTA, 1 mM glutathione, 0.05% BSA), was then added to all of the wells of the plate. Fatty acid synthase Human or rat enzyme (0.4 μg, produced in house), dissolved in 20 mM Tris/HCl pH 7.5, 5 mM BOG, 1 mM TCEP, 10% glycerol, 1 mM EDTA, 150 mM NaCl, was then added to the plate in a volume of 10 μl. Enzyme was added to all but the last two columns of the plate, to which, 10 μl of assay buffer was added (0.1M Tris ph7.5, 0.1 mM EDTA, 1 mM glutathione, 0.05% BSA) to provide a no enzyme assay control. Following a 15-minute incubation period, at room temperature, the plates were read on an Envision plate reader using 340 nm excitation and 460 nm emission filters. This served as a time zero background read. Substrates (an equal mix of both malonyl and acetyl CoA) were then added to the plates in a total volume of 5 μl. The concentrations of malonyl and acetyl CoA in the mixture were 500 μM and 150 μM respectively. Both were prepared as 10 mM stock solutions in distilled water and were subsequently diluted to working concentrations in assay buffer. Plates were then incubated for a further 60 minutes, at room temperature, before being read again on the Envision reader using the same parameters as previously used. The data was analysed by subtracting the background time zero data from that generated following the final 60 minute incubate and the percent inhibition compared to the maximum and minimum assay controls was determined. Sigmoid curves were fitted using Origin 7.5 Client software and IC50 values were determined.

T1 sequence (P49327 whole entry): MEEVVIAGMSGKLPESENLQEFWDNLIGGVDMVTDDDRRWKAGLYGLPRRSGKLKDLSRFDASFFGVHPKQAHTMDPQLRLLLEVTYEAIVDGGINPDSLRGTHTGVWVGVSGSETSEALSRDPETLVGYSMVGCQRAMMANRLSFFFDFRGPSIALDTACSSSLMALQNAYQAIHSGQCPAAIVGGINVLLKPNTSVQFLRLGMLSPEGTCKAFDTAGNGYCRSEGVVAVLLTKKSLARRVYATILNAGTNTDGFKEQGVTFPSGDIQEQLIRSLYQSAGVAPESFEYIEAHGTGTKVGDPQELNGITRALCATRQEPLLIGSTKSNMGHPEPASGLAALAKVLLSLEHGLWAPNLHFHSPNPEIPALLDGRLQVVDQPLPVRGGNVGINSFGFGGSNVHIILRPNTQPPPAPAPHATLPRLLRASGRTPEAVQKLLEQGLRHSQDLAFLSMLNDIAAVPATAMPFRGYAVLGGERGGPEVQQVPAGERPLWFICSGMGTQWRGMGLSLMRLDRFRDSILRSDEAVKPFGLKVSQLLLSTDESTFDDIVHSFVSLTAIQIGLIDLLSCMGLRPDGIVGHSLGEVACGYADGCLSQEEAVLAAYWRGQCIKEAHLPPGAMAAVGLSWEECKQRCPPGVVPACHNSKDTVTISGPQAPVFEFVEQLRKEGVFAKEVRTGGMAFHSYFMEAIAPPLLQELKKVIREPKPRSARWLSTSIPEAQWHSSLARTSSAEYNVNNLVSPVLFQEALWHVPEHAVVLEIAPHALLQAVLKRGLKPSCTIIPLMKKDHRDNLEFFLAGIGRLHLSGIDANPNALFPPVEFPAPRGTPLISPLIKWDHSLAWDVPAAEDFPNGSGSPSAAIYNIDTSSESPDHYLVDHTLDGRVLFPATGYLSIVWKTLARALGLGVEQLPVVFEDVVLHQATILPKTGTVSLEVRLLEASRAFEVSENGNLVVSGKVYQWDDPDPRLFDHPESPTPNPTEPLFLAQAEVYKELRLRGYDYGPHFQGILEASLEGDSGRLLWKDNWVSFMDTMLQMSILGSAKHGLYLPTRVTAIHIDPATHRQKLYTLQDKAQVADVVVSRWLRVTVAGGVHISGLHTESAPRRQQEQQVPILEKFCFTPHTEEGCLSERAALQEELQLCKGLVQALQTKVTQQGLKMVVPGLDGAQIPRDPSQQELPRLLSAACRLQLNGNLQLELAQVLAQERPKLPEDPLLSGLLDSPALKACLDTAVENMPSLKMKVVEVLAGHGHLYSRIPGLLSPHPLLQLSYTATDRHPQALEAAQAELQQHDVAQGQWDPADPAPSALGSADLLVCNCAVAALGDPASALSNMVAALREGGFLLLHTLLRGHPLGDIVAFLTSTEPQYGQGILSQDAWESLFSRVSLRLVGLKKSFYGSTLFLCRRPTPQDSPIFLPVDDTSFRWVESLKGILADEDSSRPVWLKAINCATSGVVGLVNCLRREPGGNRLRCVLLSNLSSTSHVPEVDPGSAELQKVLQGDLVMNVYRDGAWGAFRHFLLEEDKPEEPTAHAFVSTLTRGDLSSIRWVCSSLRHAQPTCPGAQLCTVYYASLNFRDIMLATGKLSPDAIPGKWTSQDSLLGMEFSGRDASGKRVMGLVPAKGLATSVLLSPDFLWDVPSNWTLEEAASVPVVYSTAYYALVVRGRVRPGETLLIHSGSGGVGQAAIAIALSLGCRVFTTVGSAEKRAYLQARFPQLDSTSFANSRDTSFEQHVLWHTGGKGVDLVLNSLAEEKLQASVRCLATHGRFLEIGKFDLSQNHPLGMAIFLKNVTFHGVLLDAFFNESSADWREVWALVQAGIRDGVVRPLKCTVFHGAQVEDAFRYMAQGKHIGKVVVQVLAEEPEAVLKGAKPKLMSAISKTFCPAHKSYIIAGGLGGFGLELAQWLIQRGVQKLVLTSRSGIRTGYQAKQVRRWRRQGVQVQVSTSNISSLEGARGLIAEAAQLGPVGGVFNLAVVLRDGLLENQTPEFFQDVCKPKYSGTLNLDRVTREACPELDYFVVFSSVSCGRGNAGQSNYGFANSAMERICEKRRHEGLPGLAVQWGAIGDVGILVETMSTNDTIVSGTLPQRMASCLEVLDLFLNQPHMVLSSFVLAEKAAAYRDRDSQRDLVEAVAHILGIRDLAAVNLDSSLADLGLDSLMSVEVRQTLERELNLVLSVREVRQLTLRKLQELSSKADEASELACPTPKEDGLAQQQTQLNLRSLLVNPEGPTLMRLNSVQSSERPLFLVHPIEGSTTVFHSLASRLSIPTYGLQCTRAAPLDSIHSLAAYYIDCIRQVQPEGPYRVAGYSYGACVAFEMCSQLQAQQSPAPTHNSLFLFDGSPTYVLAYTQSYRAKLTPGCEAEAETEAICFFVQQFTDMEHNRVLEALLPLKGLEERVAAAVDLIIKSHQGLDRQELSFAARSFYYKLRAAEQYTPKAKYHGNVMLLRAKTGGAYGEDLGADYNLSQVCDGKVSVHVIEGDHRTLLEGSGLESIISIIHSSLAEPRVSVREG

| Structure (SMILES) | inhibition at 100 µM [%] | IC50, inhibition of human Fatty Acid Synthase |
| --- | --- | --- |
| COC(=O)CCNC(=O)Nc1cc(C(=O)N2CCC(c3ccc(C#N)cc3)CC2)ccc1C [Example 45, methyl 3-[[5-[4-(4-cyanophenyl)piperidine-1-carbonyl]-2-methyl-phenyl]carbamoylamino]propanoate] | 91.8 | – |
| Cc1ccc(C(=O)N2CCC(c3ccc(C#N)cc3)CC2)cc1NC(=O)NCC(C)(C)N [Example 203, 3-(2-amino-2-methyl-propyl)-1-[5-[4-(4-cyanophenyl)piperidine-1-carbonyl]-2-methyl-phenyl]urea] | 91 | – |
| Cc1ccc(C(=O)N2CCC(c3ccc(C#N)cc3)CC2)cc1NC(=O)NCCN(C)C [Example 145, 1-[5-[4-(4-cyanophenyl)piperidine-1-carbonyl]-2-methyl-phenyl]-3-(2-dimethylaminoethyl)urea] | 79.3 | – |
| Cc1ccc(C(=O)N2CCC(c3ccccc3C#N)CC2)cc1NC(=O)NC(C)C [1-[5-[4-(2-cyanophenyl)piperidine-1-carbonyl]-2-methylphenyl]-3-propan-2-ylurea] | – | do not have IC50s in the range of about 0.001 μM to about 30 μM |
| Cc1ccc(C(=O)N2CCC(O)(c3cccc(C(F)(F)F)c3)CC2)cc1NC(=O)NC(C)C [1-[5-[4-hydroxy-4-[3-(trifluoromethyl)phenyl]piperidine-1-carbonyl]-2-methylphenyl]-3-propan-2-ylurea] | – | do not have IC50s in the range of about 0.001 μM to about 30 μM |
| Cc1ccc(C(=O)N2CCC(c3ccc(C#N)cc3)CC2)cc1NC(=O)NC1CCOCC1 [Example 162, 1-[5-[4-(4-cyanophenyl)piperidine-1-carbonyl]-2-methyl-phenyl]-3-(oxan-4-yl)urea] | 84.2 | – |
| Cc1ccc(C(=O)N2CCC(c3ccc(C#N)cc3)CC2)cc1NC(=O)NCCCN1CCN(C)CC1 [Example 140, 1-[5-[4-(4-cyanophenyl)piperidine-1-carbonyl]-2-methyl-phenyl]-3-[3-(4-methylpiperazin-1-yl)propyl]urea] | 79.2 | – |
| Cc1ccc(C(=O)N2CCC(c3ccc(C#N)cc3)CC2)cc1NC(=O)NC1CCCC1 [Example 15, 1-[5-[4-(4-cyanophenyl)piperidine-1-carbonyl]-2-methyl-phenyl]-3-cyclopentyl-urea] | 91.3 | – |

Now from value to molecule, other results behind:

| inhibition at 100 µM [%] | Structure (SMILES) | IC50, inhibition of human Fatty Acid Synthase |
| --- | --- | --- |
| 71.1 | Cc1ccc(C(=O)N2CCC(c3ccc(C#N)cc3)CC2)cc1NC(=O)N(C)Cc1ccccc1 [Example 381, 1-benzyl-3-[5-[4-(4-cyanophenyl)piperidine-1-carbonyl]-2-methylphenyl]-1-methylurea] | – |
| 99.6 | Cc1ccc(C(=O)N2CCC(c3ccc(C#N)cc3)CC2)cc1NC(=O)NC1CCCNC1 (centres unmarked) [Example 286, 1-[5-[4-(4-cyanophenyl)piperidine-1-carbonyl]-2-methyl-phenyl]-3-(3-piperidyl)urea] | – |
| 91.3 | Cc1ccc(C(=O)N2CCC(c3ccc(C#N)cc3)CC2)cc1NC(=O)NC(C)c1cccnc1 (centres unmarked) [Example 354, 1-[5-[4-(4-cyanophenyl)piperidine-1-carbonyl]-2-methyl-phenyl]-3-(1-pyridin-3-ylethyl)urea] | – |
| 71.8 | Cc1ccc(C(=O)N2CCC(c3ccc(S(C)(=O)=O)cc3)CC2)cc1NC(=O)NC(C)C [Example 374, 1-[2-methyl-5-[4-(4-methylsulfonylphenyl)piperidine-1-carbonyl]phenyl]-3-propan-2-ylurea] | – |
| 78.2 | Cc1ccc(C(=O)N2CCC(c3ccc(C#N)cc3)CC2)cc1NC(=O)NC1(C)CCS(=O)(=O)C1 (centres unmarked) [Example 335, 1-[5-[4-(4-cyanophenyl)piperidine-1-carbonyl]-2-methyl-phenyl]-3-(3-methyl-1,1-dioxo-thiolan-3-yl)urea] | – |
| 105 | CCS(=O)(=O)N1CC(NC(=O)Nc2cc(C(=O)N3CCC(c4ccc(C#N)cc4)CC3)ccc2C)C1 [Example 311, 3-[5-[4-(4-cyanophenyl)piperidine-1-carbonyl]-2-methyl-phenyl]-1-(1-ethylsulfonylazetidin-3-yl)urea] | – |
